Measurements as given in patent US8703725B2, “Nutritional compositions” (NESTEC S.A., priority 2002, dated 2014).

System: muscle protein kinetics
Test: Protein kinetics in muscle of rabbits infused with amino acid mixtures (surgical stress model)
Format: in vivo, New Zealand white rabbits
Conditions: rabbit, infusion, means ± SEM
Procedure: To investigate the optimal mixture of free amino acids for stimulating net muscle protein synthesis a series of studies in New Zealand white rabbits weighing about 4.5 kg was performed. Net muscle protein balance was quantified by a technique analogous to the one used for human studies as described in Biolo et al, J Parent Enteral Nutr 16:305-315, 1992, which is hereby incorporated by reference, except that leg blood flow was measured by flow probe. This animal model is designed to represent a stress model induced by the surgical procedures needed to collect the samples and therefore is considered to be a good model for a seriously-ill […] patient. Different amino acid mixtures were infused into the rabbits, and the response of muscle quantified.
The groups were as follows:
AA group: A balanced AA solution (10% TRAVASOL®) containing all amino acids (27.3 umol·kg^−1·min^−1)
EAA group: Only essential amino acids (27.3 umol·kg^−1·min^−1)
Leu (25%)+AA group: Leucine was added to the balanced AA solution to account for 25% of total nitrogen and infused at the same total nitrogen group as others (27.3 umol·kg^−1·min^−1)
Leu (35%)+AA group: Same as above, except Leu comprised 35% of total
Leu only: Leucine only at 8.3 umol·kg·min

With `CC(C)C[C@H](N)C(=O)O` [Leu alone, Leucine] the “Protein kinetics in muscle: Breakdown” value was 9.2 ± 0.5 µmol/kg/min, the “Protein kinetics in muscle: Net balance” value (*p<0.05 vs control) was -2.6 ± 0.3 µmol/kg/min and the “Protein kinetics in muscle: Synthesis” value (*p<0.05 vs control) was 6.6 ± 0.7 µmol/kg/min.
